Reference: ChEMBL document CHEMBL1137031, “Synthesis and antibacterial activity of C-6 carbamate ketolides, a novel series of orally active ketolide antibiotics” (2004)
Converted amounts (≈) assume the structure as drawn.

Columns and labels:
Staphylococcus aureus [1] = test: Minimum inhibitory concentration against Staphylococcus aureus OC4172 in presence of mouse serum; type: functional
Staphylococcus aureus [2] = test: Minimum inhibitory concentration against Staphylococcus aureus OC4172; type: functional
Mus musculus [3] = test: Percent survival of Staphylococcus aureus infected murine was tested after peroral injection of 20 mg/kg dose; type: functional; conditions: route oral
Mus musculus [4] = test: Percent survival of Staphylococcus aureus infected murine was tested after subcutaneous injection of 10 mg/kg dose; type: functional; conditions: sc
Haemophilus influenzae = test: Minimum inhibitory concentration against Haemophilus influenzae OC4482
Streptococcus pneumoniae [5] = test: Minimum inhibitory concentration against Streptococcus pneumoniae OC4051
Streptococcus pneumoniae [6] = test: Minimum inhibitory concentration against Streptococcus pneumoniae OC4421
Streptococcus pneumoniae [7] = test: Minimum inhibitory concentration against Streptococcus pneumoniae OC9132
[8] = test system: Staphylococcus haemolyticus; test: Minimum inhibitory concentration against Staphylococcus haemolyticus OC3882
[9] = test system: Staphylococcus haemolyticus; test: Minimum inhibitory concentration against Staphylococcus haemolyticus OC4545
Mus musculus [10] = test: Effective dose against Staphylococcus aureus infected murine was tested after subcutaneous injection; type: functional; conditions: sc
Mus musculus [11] = organism: Mus musculus; test: Effective dose against Staphylococcus aureus infected murine was tested after peroral injection; type: functional

| Structure (SMILES) | MIC (Staphylococcus aureus [1]) | MIC (Staphylococcus aureus [2]) | survival at 20 mg/kg (Mus musculus [3]) | survival at 10 mg/kg (Mus musculus [4]) | MIC (Haemophilus influenzae) | MIC (Streptococcus pneumoniae [5]) | MIC (Streptococcus pneumoniae [6]) | MIC (Streptococcus pneumoniae [7]) | MIC [8] | MIC [9] | ED50 (Mus musculus [10]) | ED50 (Mus musculus [11]) |
| --- | --- | --- | --- | --- | --- | --- | --- | --- | --- | --- | --- | --- |
| CC[C@H]1OC(=O)C(C)C(=O)[C@H](C)[C@@H](O[C@@H]2O[C@H](C)C[C@H](N(C)C)[C@H]2O)[C@](C)(OC(=O)N/C=C/c2ccc(-c3ccccn3)cc2)C[C@@H](C)C(=O)[C@H](C)[C@H]2NC(=O)O[C@@]21C (some centres undefined) | 0.5 µg/mL | 0.12 µg/mL (≈ 0.146 µM) | 20% | 80% | 4 µg/mL (≈ 4.87 µM) | 0.06 µg/mL (≈ 0.0731 µM) | 0.06 µg/mL (≈ 0.0731 µM) | 0.03 µg/mL (≈ 0.0365 µM) | 0.12 µg/mL (≈ 0.146 µM) | > 16 µg/mL |  |  |
| CC[C@H]1OC(=O)C(C)C(=O)[C@H](C)[C@@H](O[C@@H]2O[C@H](C)C[C@H](N(C)C)[C@H]2O)[C@](C)(OC(=O)N/C=C/c2ccc(-c3ccccc3)cc2)C[C@@H](C)C(=O)[C@H](C)[C@H]2NC(=O)O[C@@]21C (some centres undefined) | 2 µg/mL | 0.5 µg/mL (≈ 0.61 µM) |  |  | 8 µg/mL (≈ 9.76 µM) | 0.5 µg/mL (≈ 0.61 µM) | 0.25 µg/mL (≈ 0.305 µM) | 0.06 µg/mL (≈ 0.0732 µM) | 1 µg/mL (≈ 1.22 µM) | > 16 µg/mL |  |  |
| CC[C@H]1OC(=O)C(C)C(=O)[C@H](C)[C@@H](O[C@@H]2O[C@H](C)C[C@H](N(C)C)[C@H]2O)[C@](C)(OC(=O)N/C=C/c2ccc3ccccc3n2)C[C@@H](C)C(=O)[C@H](C)[C@H]2NC(=O)O[C@@]21C (some centres undefined) | 0.5 µg/mL | 0.25 µg/mL (≈ 0.314 µM) | 25% | 75% | 4 µg/mL (≈ 5.03 µM) | 0.03 µg/mL (≈ 0.0377 µM) | 0.06 µg/mL (≈ 0.0755 µM) | ≤ 0.01 µg/mL | 0.25 µg/mL (≈ 0.314 µM) | > 16 µg/mL |  |  |
| CC[C@H]1OC(=O)C(C)C(=O)[C@H](C)[C@@H](O[C@@H]2O[C@H](C)C[C@H](N(C)C)[C@H]2O)[C@](C)(OC(N)=O)C[C@@H](C)C(=O)[C@H](C)[C@H]2NC(=O)O[C@@]21C (some centres undefined) | 1 µg/mL | 4 µg/mL (≈ 6.23 µM) |  |  | 2 µg/mL (≈ 3.12 µM) | > 16 µg/mL | 2 µg/mL (≈ 3.12 µM) | 2 µg/mL (≈ 3.12 µM) | > 16 µg/mL | > 16 µg/mL |  |  |
| CC[C@H]1OC(=O)C(C)C(=O)[C@H](C)[C@@H](O[C@@H]2O[C@H](C)C[C@H](N(C)C)[C@H]2O)[C@](C)(OC(=O)N/C=C/c2ccc3cccnc3c2)C[C@@H](C)C(=O)[C@H](C)[C@H]2NC(=O)O[C@@]21C (some centres undefined) | 0.5 µg/mL | 0.12 µg/mL (≈ 0.151 µM) | 0% | 40% | 2 µg/mL (≈ 2.52 µM) | 0.03 µg/mL (≈ 0.0377 µM) | 0.03 µg/mL (≈ 0.0377 µM) | ≤ 0.01 µg/mL | 0.25 µg/mL (≈ 0.314 µM) | > 16 µg/mL |  |  |
| CC[C@H]1OC(=O)C(C)C(=O)[C@H](C)[C@@H](O[C@@H]2O[C@H](C)C[C@H](N(C)C)[C@H]2O)[C@](C)(OC(=O)NCCc2ccccc2)C[C@@H](C)C(=O)[C@H](C)[C@H]2NC(=O)O[C@@]21C (some centres undefined) | 2 µg/mL | 1 µg/mL (≈ 1.34 µM) |  |  | 8 µg/mL (≈ 10.7 µM) | 2 µg/mL (≈ 2.68 µM) | 0.12 µg/mL (≈ 0.161 µM) | 0.25 µg/mL (≈ 0.335 µM) | 4 µg/mL (≈ 5.36 µM) | > 16 µg/mL |  |  |
| CC[C@H]1OC(=O)C(C)C(=O)[C@H](C)[C@@H](O[C@@H]2O[C@H](C)C[C@H](N(C)C)[C@H]2O)[C@](C)(OC(=O)NCCCc2ccccc2)C[C@@H](C)C(=O)[C@H](C)[C@H]2NC(=O)O[C@@]21C (some centres undefined) | 8 µg/mL | 2 µg/mL (≈ 2.63 µM) |  |  | 16 µg/mL (≈ 21.1 µM) | 1 µg/mL (≈ 1.32 µM) | 0.12 µg/mL (≈ 0.158 µM) | 0.06 µg/mL (≈ 0.079 µM) | 2 µg/mL (≈ 2.63 µM) | > 16 µg/mL |  |  |
| CC[C@H]1OC(=O)C(C)C(=O)[C@H](C)[C@@H](O[C@@H]2O[C@H](C)C[C@H](N(C)C)[C@H]2O)[C@](C)(OC(=O)N/C=C/c2ccc(-n3ccnc3)cc2)C[C@@H](C)C(=O)[C@H](C)[C@H]2NC(=O)O[C@@]21C (some centres undefined) | 0.25 µg/mL | 0.12 µg/mL (≈ 0.148 µM) | 0% | 60% | 4 µg/mL (≈ 4.94 µM) | 0.12 µg/mL (≈ 0.148 µM) | 0.25 µg/mL (≈ 0.309 µM) | ≤ 0.01 µg/mL | 1 µg/mL (≈ 1.23 µM) | > 16 µg/mL |  |  |
| CC[C@H]1OC(=O)C(C)C(=O)[C@H](C)[C@@H](O[C@@H]2O[C@H](C)C[C@H](N(C)C)[C@H]2O)[C@](C)(OC(=O)N/C=C/c2ccc(-c3cnccn3)cc2)C[C@@H](C)C(=O)[C@H](C)[C@H]2NC(=O)O[C@@]21C (some centres undefined) | 0.25 µg/mL | 0.12 µg/mL (≈ 0.146 µM) | 62% | 100% | 4 µg/mL (≈ 4.87 µM) | 0.06 µg/mL (≈ 0.073 µM) | 0.12 µg/mL (≈ 0.146 µM) | 0.03 µg/mL (≈ 0.0365 µM) | 0.25 µg/mL (≈ 0.304 µM) | > 16 µg/mL | 4.8 mg/kg | 17 mg/kg |
